From patent US8785649B2, “Ethynylphenylamidine compound or salt thereof, method for producing same, and fungicide for agricultural and horticultural use” (priority 2010, dated 2014)

Columns and labels:
[1] = tested on: Wheat scab (Microdochium nivale); test: Test of inhibition of growth of wheat scab mycelium; assay type: cell-based; conditions: read-out: inhibition rate (mycelium growth length)
[2] = tested on: powdery mildew (Sphaerotheca cucurbitae); test: Test of effect on cucumber powdery mildew, vaporization properties; assay type: in vivo; conditions: 100 ppm drug solution dropped on aluminum foil on cucumber first leaf; seven days after inoculation; 2 cm or more = vaporization effect
Experimental: A 10-mm square piece of aluminum foil was attached with a double-sided tape on the first leaf of cucumber planted in a 7.5-cm-diameter pot. […] The drug solution was added dropwise in […] using a micropipette. After air-drying the drug solution, the leaf was inoculated by spraying with a spore suspension of powdery mildew (Sphaerotheca cucurbitae). Seven days after inoculation, the diameter of a disease development inhibition circle on the cucumber first leaf was measured. The appearance of necrotic lesions on the leaf was examined in comparison with the untreated plot. There was judged to be a vaporization effect when an inhibition circle having a diameter of 2 cm or more was formed around the aluminum foil.

[3] = tested on: wheat powdery mildew (Erysiphe graminis); test: Test of preventive effect on wheat powdery mildew; conditions: wheat seedlings
[4] = treatment concentration 100 ppm

Molecule `Cc1cc(N=CN(C)C)c(C)cc1C#CC(C)(C)C` [Compound 52, N,N-dimethyl-N′-[2,5-dimethyl-4-(3,3-dimethyl-1-butynyl)phenyl]formamidine] has an inhibition at 10 ppm [1] of 100%.

Work on `Cc1cc(N=CN(C)C)c(C)cc1C#C[Si](C)(C)C` [Compound 59, N,N-dimethyl-N′-[2,5-dimethyl-4-(2-trimethylsilyl-1-ethynyl)phenyl]formamidine] yielded an inhibition at 10 ppm [1] of 100%.

Work on `CCN(C)C=Nc1ccc(C#CC(C)(C)C)cc1C` [Compound 66, N-ethyl-N-methyl-N′-[2-methyl-4-(3,3-dimethyl-1-butynyl)phenyl]formamidine] yielded an inhibition at 10 ppm [1] of 100%.

For `CCN(C)C=Nc1ccc(C#C[Si](CC)(CC)CC)cc1C` [Compound 69], the “Diameter of disease development inhibition circle” value [2] was 2.75 cm.

`CCN(C)C=Nc1cc(C)c(C#CC(C)(C)C)cc1Cl` [Compound 85] was tested, and the “Diameter of disease development inhibition circle” value [2] was 6.0 cm.

`CCN(C)C=Nc1cc(Cl)c(C#CC(C)(C)C)cc1C` [Compound 91] was tested, and the “Diameter of disease development inhibition circle” value [2] was 6.0 cm.

`CCN(C)C=Nc1cc(Cl)c(C#C[Si](C)(C)C)cc1C` [Compound 93] was tested, and the “Diameter of disease development inhibition circle” value [2] was 6.0 cm.

With `CCN(C)C=Nc1cc(C)c(C#CC(C)(C)C)cc1C` [Compound 98] the “Diameter of disease development inhibition circle” value [2] was 9.5 cm.

`CCN(C)C=Nc1cc(C)c(C#C[Si](C)(C)C)cc1C` [Compound 123, N-ethyl-N-methyl-N′-[2,5-dimethyl-4-(2-trimethylsilyl-1-ethynyl)phenyl]formamidine] was tested, and the inhibition at 10 ppm [1] was 100%, the “Diameter of disease development inhibition circle” value [2] was 9.5 cm and the Preventive value ([3]; treatment concentration 10 ppm) was 100. For the same molecule, the Preventive value ([3]; treatment concentration 20 ppm) was 100, the Preventive value ([3]; treatment concentration 40 ppm) was 100 and the Preventive value [3, 4] was 100.

With `CCN(C)C=Nc1cc(C)c(C#C[Si](CC)(CC)CC)cc1C` [Compound 124] the “Diameter of disease development inhibition circle” value [2] was 3.75 cm.

In the case of `CCN(C)C=Nc1cc(C)c(C#C[Si](C)(C)C(C)(C)C)cc1C` [Compound 126], the “Diameter of disease development inhibition circle” value [2] is reported as 6.5 cm.

In the case of `CCN(C)C=Nc1cc(C)c(C#CC[Si](C)(C)C)cc1C` [Compound 127], the “Diameter of disease development inhibition circle” value [2] is reported as 2.0 cm.

With `Cc1cc(N=CN2CCCCC2)c(C)cc1C#C[Si](C)(C)C` [Compound 147] the “Diameter of disease development inhibition circle” value [2] was 2.5 cm.

With `CCN(C)C=Nc1cc(F)c(C#C[Si](C)(C)C)cc1C` [Compound 158] the “Diameter of disease development inhibition circle” value [2] was 3.75 cm.

`CCN(C)C=Nc1cc(C)c(C#CC(C)(C)O[Si](C)(C)C)cc1C` [Compound 161] was tested, and the “Diameter of disease development inhibition circle” value [2] was 6.0 cm.

With `CCN(C)C=Nc1cc(C)c(C#C[Si](C)(C)C)cc1C.Cl` [Compound 162, N-ethyl-N-methyl-N′-[2,5-dimethyl-4-(2-trimethylsilyl-1-ethynyl)phenyl]formamidine hydrochloride] the “Diameter of disease development inhibition circle” value [2] was 8.0 cm.

`CCN(C)C=Nc1cc(C)c(C#C[Si](C)(C)C(C)(C)C)cc1C.Cl` [Compound 163] was tested, and the “Diameter of disease development inhibition circle” value [2] was 8.0 cm.

`Cc1cc(N=CN(C)C(C)C)c(C)cc1C#C[Si](C)(C)C(C)(C)C` [Compound 171] was tested, and the “Diameter of disease development inhibition circle” value [2] was 7.0 cm.

With `CCN(C)C=Nc1cc(Cl)c(C#CC(C)(C)C)cc1C.Cl` [Compound 172] the “Diameter of disease development inhibition circle” value [2] was 7.0 cm.

In the case of `CC1(C)[C@H]2CC[C@]1(CS(=O)(=O)O)C(=O)C2.CCN(C)C=Nc1cc(C)c(C#C[Si](C)(C)C)cc1C` [Compound 175], the “Diameter of disease development inhibition circle” value [2] is reported as 7.0 cm.

With `CCN(C)C=Nc1cc(F)c(C#C[Si](C)(C)C)cc1C.Cl` [Compound 176] the “Diameter of disease development inhibition circle” value [2] was 7.0 cm.

For `CCN(C)/C=N/c1ccc(-c2ccc(C(C)(C)C)cc2)cc1C` [Reference Compound A], the “Diameter of disease development inhibition circle” value [2] was 0 cm, the Preventive value ([3]; treatment concentration 10 ppm) was 10 and the Preventive value ([3]; treatment concentration 20 ppm) was 20. It also gave a Preventive value ([3]; treatment concentration 40 ppm) of 70 and a Preventive value [3, 4] of 100.

In the case of `CCN(C)/C=N/c1cc(C)c(-c2ccc(C(C)(C)C)cc2)cc1C` [Reference Compound B], the “Diameter of disease development inhibition circle” value [2] is reported as 0 cm, the Preventive value ([3]; treatment concentration 10 ppm) is reported as 40 and the Preventive value ([3]; treatment concentration 20 ppm) is reported as 70. It also gave a Preventive value ([3]; treatment concentration 40 ppm) of 70 and a Preventive value [3, 4] of 95.

“N-ethyl-N-methyl-N′-[2,5-dimethyl-4-(2-trimethylsilyl-1-ethynyl)phenyl]formamidine (+)-camphorsulfonate [Compound 174]” was tested, and the “Diameter of disease development inhibition circle” value [2] was 7.0 cm.
